Where “and” joins values, the source holds several entries; their conditions need not be identical. Equal entries are not always repeated. Toxic doses and inconclusive results are not listed. The calls were made as follows: active = survival T/C of 150% or more; inactive = T/C below 125% in these data.
Test system: P388 leukemia ip, CD2F1 mice, survival T/C
Assay: NCI In Vivo Anticancer Drug Screen. Data for tumor model P388 Leukemia (intraperitoneal) in CD2F1 (CDF1) mice
Settings: endpoint: median survival time, higher = longer survival
Method in brief: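 Mice carrying the transplanted tumor received test compound or vehicle. Survival was recorded in each group, and the value is the treated-group measurement divided by that of the vehicle-treated control group.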

[1] = dose: 100.0 mg/kg/injection, schedule: Q01DX009 (ip), vehicle: saline with Tween-80
[2] = dose: 50.0 mg/kg/injection, schedule: Q01DX009 (ip), vehicle: saline with Tween-80
[3] = dose: 200.0 mg/kg/injection, schedule: Q01DX009 (ip), vehicle: saline with Tween-80
[4] = dose: 25.0 mg/kg/injection, schedule: Q01DX009 (ip), vehicle: saline with Tween-80
[5] = dose: 50.0 mg/kg/injection, schedule: Q01DX009 (ip), vehicle: Klucel (hydroxypropylcellulose) (HPC)
[6] = dose: 100.0 mg/kg/injection, schedule: Q01DX009 (ip), vehicle: Klucel (hydroxypropylcellulose) (HPC)
[7] = dose: 200.0 mg/kg/injection, schedule: Q01DX009 (ip), vehicle: Klucel (hydroxypropylcellulose) (HPC)
[8] = dose: 25.0 mg/kg/injection, schedule: Q01DX005 (ip), vehicle: Klucel (hydroxypropylcellulose) (HPC)
[9] = dose: 50.0 mg/kg/injection, schedule: Q01DX005 (ip), vehicle: Klucel (hydroxypropylcellulose) (HPC)
[10] = dose: 100.0 mg/kg/injection, schedule: Q01DX005 (ip), vehicle: Klucel (hydroxypropylcellulose) (HPC)
[11] = dose: 50.0 mg/kg/injection, schedule: Q04DX003 (ip), vehicle: saline with Tween-80
[12] = dose: 100.0 mg/kg/injection, schedule: Q04DX003 (ip), vehicle: saline with Tween-80

Measured: T/C

Cc1ccc(S(=O)CC#CC#CCS(=O)c2ccc(C)cc2)cc1 (stereo not given)
inactive: dose: 50.0 mg/kg/injection, schedule: Q01DX001 (ip), vehicle: saline with Tween-80 93 % of control | dose: 100.0 mg/kg/injection, schedule: Q01DX001 (ip), vehicle: saline with Tween-80 97 % of control | dose: 200.0 mg/kg/injection, schedule: Q01DX001 (ip), vehicle: saline with Tween-80 101 % of control

N#CO
inactive: [1] 90 % of control

CCCCNC(=O)NS(=O)(=O)c1ccc(N)cc1
inactive: [2] 100 % of control | [1] 105 % of control | [3] 102 % of control

Nc1ccccc1C(=O)NCCCCCCN1CCN(c2cccc(Cl)c2)CC1
inactive: [2] 92 % of control | [1] 90 % of control | [3] 96 % of control

Nn1cnc2[nH]ncc2c1=O
inactive: dose: 60.0 mg/kg/injection, schedule: Q01DX005 (ip), vehicle: saline 99 % of control | dose: 120.0 mg/kg/injection, schedule: Q01DX005 (ip), vehicle: saline 99 % of control | dose: 240.0 mg/kg/injection, schedule: Q01DX005 (ip), vehicle: saline 105 % of control

CCCCC(CCC)(CCC)CCN
inactive: dose: 2.5 mg/kg/injection, schedule: Q01DX009 (ip), vehicle: suspension in saline 104 % of control and 105 % of control | dose: 5.0 mg/kg/injection, schedule: Q01DX009 (ip), vehicle: suspension in saline 100 % of control and 105 % of control | dose: 10.0 mg/kg/injection, schedule: Q01DX009 (ip), vehicle: suspension in saline 122 % of control and 97 % of control | dose: 20.0 mg/kg/injection, schedule: Q01DX009 (ip), vehicle: suspension in saline 106 % of control

CSc1nc(C)c(Br)c(Nc2ccc(C(N)=O)cc2)n1
inactive: dose: 3.13 mg/kg/injection, schedule: Q01DX009 (ip), vehicle: saline with Tween-80 102 % of control | dose: 6.25 mg/kg/injection, schedule: Q01DX009 (ip), vehicle: saline with Tween-80 94 % of control | dose: 12.5 mg/kg/injection, schedule: Q01DX009 (ip), vehicle: saline with Tween-80 96 % of control | [4] 94 % of control

O=[N+]([O-])c1ccc(Br)cc1
inactive: dose: 50.0 mg/kg/injection, schedule: Q01DX009 (ip), vehicle: saline 106 % of control | dose: 100.0 mg/kg/injection, schedule: Q01DX009 (ip), vehicle: saline 108 % of control | dose: 200.0 mg/kg/injection, schedule: Q01DX009 (ip), vehicle: saline 101 % of control

Cc1c2cccc1CSCc1cccc(c1C)CSC2
inactive: dose: 50.0 mg/kg/injection, schedule: Q01DX009 (ip), vehicle: suspension in saline 99 % of control | dose: 100.0 mg/kg/injection, schedule: Q01DX009 (ip), vehicle: suspension in saline 92 % of control | dose: 200.0 mg/kg/injection, schedule: Q01DX009 (ip), vehicle: suspension in saline 100 % of control

CC(C(=O)O)c1ccc2sc(-c3ccccc3)nc2c1 (stereo not given)
inactive: [5] 102 % of control | [6] 100 % of control | [7] 98 % of control

CC(N)(CCSCP(=O)(O)O)C(=O)O (stereo not given)
inactive: dose: 60.0 mg/kg/injection, schedule: Q01DX005 (ip), vehicle: saline with Tween-80 99 % of control | dose: 120.0 mg/kg/injection, schedule: Q01DX005 (ip), vehicle: saline with Tween-80 91 % of control

CC=C/C=C/[C@@H]1O[C@](O)([C@H](CC)C(=O)NC/C=C/C=C(\C)[C@@H](OC)[C@@H](C)[C@@H]2O[C@H](/C=C/C=C/C=C(\C)C(=O)c3c(O)cc[nH]c3=O)[C@H](O)[C@@H]2O)[C@H](O)[C@H](O)C1(C)C
inactive: dose: 4.5 mg/kg/injection, schedule: Q01DX009 (ip), vehicle: Klucel (hydroxypropylcellulose) (HPC) 108 % of control | dose: 9.0 mg/kg/injection, schedule: Q01DX009 (ip), vehicle: Klucel (hydroxypropylcellulose) (HPC) 108 % of control | dose: 18.0 mg/kg/injection, schedule: Q01DX009 (ip), vehicle: Klucel (hydroxypropylcellulose) (HPC) 104 % of control | dose: 36.0 mg/kg/injection, schedule: Q01DX009 (ip), vehicle: Klucel (hydroxypropylcellulose) (HPC) 103 % of control | [5] 98 % of control | [6] 99 % of control | [7] 99 % of control | dose: 400.0 mg/kg/injection, schedule: Q01DX009 (ip), vehicle: Klucel (hydroxypropylcellulose) (HPC) 102 % of control

Cc1ccccc1Nc1nc(-c2ccccc2)nc(N)c1N=O
inactive: dose: 100.0 mg/kg/injection, schedule: Q04DX003 (ip), vehicle: saline 100 % of control | dose: 200.0 mg/kg/injection, schedule: Q04DX003 (ip), vehicle: saline 98 % of control | dose: 400.0 mg/kg/injection, schedule: Q04DX003 (ip), vehicle: saline 98 % of control

COc1ccc(/C=C/C(=O)c2ccccc(=O)c2O)c(OC)c1OC
inactive: [8] 105 % of control | [9] 99 % of control | [10] 109 % of control | dose: 200.0 mg/kg/injection, schedule: Q01DX005 (ip), vehicle: Klucel (hydroxypropylcellulose) (HPC) 108 % of control

CNC(=S)SCc1ccccc1
inactive: [2] 99 % of control | [1] 110 % of control

C=CC(=NC(C)C)N(C)c1ccccc1
inactive: dose: 6.25 mg/kg/injection, schedule: Q01DX009 (ip), vehicle: saline 101 % of control | dose: 12.5 mg/kg/injection, schedule: Q01DX009 (ip), vehicle: saline 96 % of control | dose: 25.0 mg/kg/injection, schedule: Q01DX009 (ip), vehicle: saline 96 % of control

COc1cc2cc(c1Cl)N(C)C(=O)CC(OC(=O)CC(C)C)C1(C)OC1C(C)C1CC(O)(NC(=O)O1)C(OC)/C=C/C=C(C)C2 (stereo not given)
inactive: dose: 6.2 micrograms/kg/injection, schedule: Q01DX009 (ip), vehicle: saline + alcohol 113 % of control | dose: 6.25 micrograms/kg/injection, schedule: Q01DX009 (ip), vehicle: saline + alcohol 111 % of control and 120 % of control | dose: 100.0 micrograms/kg/injection, schedule: Q01DX009 (ip), vehicle: saline + alcohol 106 % of control

Nc1cc(Cl)c(N(CCO)C2=NCCN2)c(Cl)c1
inactive: dose: 12.5 mg/kg/injection, schedule: Q01DX005 (ip), vehicle: Klucel (hydroxypropylcellulose) (HPC) 92 % of control | [8] 88 % of control | [9] 105 % of control and 89 % of control

CC(O)(c1ccc(Br)cc1)C1CC1 (stereo not given)
inactive: dose: 100.0 mg/kg/injection, schedule: Q01DX001 (ip), vehicle: Klucel (hydroxypropylcellulose) (HPC) 103 % of control | dose: 200.0 mg/kg/injection, schedule: Q01DX001 (ip), vehicle: Klucel (hydroxypropylcellulose) (HPC) 91 % of control | dose: 400.0 mg/kg/injection, schedule: Q01DX001 (ip), vehicle: Klucel (hydroxypropylcellulose) (HPC) 96 % of control

CN1C2=NC(=O)NC(=O)C23OC3c2ccccc21 (stereo not given) (tested in a mixture with another compound)
inactive: [9] 102 % of control | [10] 103 % of control

CCOC(=O)c1c(C)c2c(n1C)CCc1sc(N)nc1-2
inactive: dose: 50.0 mg/kg/injection, schedule: Q04DX003 (ip), vehicle: Klucel (hydroxypropylcellulose) (HPC) 100 % of control | dose: 100.0 mg/kg/injection, schedule: Q04DX003 (ip), vehicle: Klucel (hydroxypropylcellulose) (HPC) 101 % of control | dose: 200.0 mg/kg/injection, schedule: Q04DX003 (ip), vehicle: Klucel (hydroxypropylcellulose) (HPC) 94 % of control

O=C(CCCl)Nc1c(Cl)cccc1Cl
inactive: dose: 50.0 mg/kg/injection, schedule: Q01DX005 (ip), vehicle: saline with Tween-80 96 % of control | dose: 100.0 mg/kg/injection, schedule: Q01DX005 (ip), vehicle: saline with Tween-80 99 % of control | dose: 200.0 mg/kg/injection, schedule: Q01DX005 (ip), vehicle: saline with Tween-80 96 % of control

c1ccc(C2=NCCCO2)cc1
inactive: [4] 104 % of control | dose: 25.0 mg/kg/injection, schedule: Q04DX003 (ip), vehicle: saline with Tween-80 100 % of control | [2] 95 % of control | [11] 100 % of control | [1] 108 % of control | [12] 100 % of control

CC(=O)c1cc(C)[nH]c1C
inactive: dose: 37.5 mg/kg/injection, schedule: Q01DX009 (ip), vehicle: Klucel (hydroxypropylcellulose) (HPC) 103 % of control | [2] 100 % of control | [11] 100 % of control | dose: 75.0 mg/kg/injection, schedule: Q01DX009 (ip), vehicle: Klucel (hydroxypropylcellulose) (HPC) 103 % of control | [1] 113 % of control | [12] 109 % of control | dose: 150.0 mg/kg/injection, schedule: Q01DX009 (ip), vehicle: Klucel (hydroxypropylcellulose) (HPC) 103 % of control | dose: 150.0 mg/kg/injection, schedule: Q01DX009 (ip), vehicle: saline with Tween-80 105 % of control | [3] 113 % of control | dose: 200.0 mg/kg/injection, schedule: Q04DX003 (ip), vehicle: saline with Tween-80 109 % of control

— PubChem BioAssay AID330 (DTP/NCI, 2004)
